Source: ChEMBL document CHEMBL1201862, “PubChem BioAssay data set” (2004)
Where a name gives a salt, the structure may show the parent alone. Activity calls are given as the source filed them.

What was measured:
Candida albicans [1] = assay: growth inhibition of resistant C. albicans, dose response, CaCi-8 strain, fluconazole, dry powder, set 4 (AID 488950); assay type: functional, organism-based
Candida albicans [2] = assay: C. albicans growth inhibition with fluconazole, dose response, antifungal resistance reversal project, CaCi-2 strain, Alamar Blue, dry powder, set 2 (AID 488930); assay type: functional, organism-based
Candida albicans [3] = assay: fluconazole resistance reversal in C. albicans, dose response, CaCi-2 strain, Alamar Blue, dry powder, set 4 (AID 488943); assay type: functional, organism-based
Candida albicans [4] = assay: growth inhibition of azole-resistant C. albicans, dose response, CaCi-8 strain, Alamar Blue, dry powder, set 2 (AID 488909); assay type: functional, organism-based
[5] = NIH-3T3 fibroblast cytotoxicity, dose response, cytotoxicity control, cell-based, fluorescence, Alamar Blue, secondary assay (AID 2327); assay type: functional;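 further: NIH-3T3 mouse fibroblasts cultured with fluconazole at 8 µg/mL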
[6] = molecular target: Photoreceptor-specific nuclear receptor (Homo sapiens, UniProt Q9Y5X4); assay type: functional;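 further: potency for compounds that break the NR2E3 corepressor complex and count as activators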
[7] = molecular target: Peroxisome proliferator-activated receptor gamma/Nuclear receptor coactivator 1 (Homo sapiens, UniProt P37231); assay: (§1) TR-FRET dose response biochemical High Throughput Screening assay for agonists of the steroid receptor coactivator 1 (SRC-1) recruitment by the peroxisome proliferator-activated receptor gamma (PPAR gamma): non-selective agonists. [Related pubchem assays (depositor defined):AID1300, AID1808, AID504735, AID631]; assay type: protein assay
[8] = molecular target: Peroxisome proliferator-activated receptor gamma/Nuclear receptor coactivator 3 (Homo sapiens, UniProt P37231); assay: as §1, with “3 (SRC-3)” for “1 (SRC-1)”, “assays: 1301 (Confirmation screen.), 1048 (Primary screen.)]” for “assays (depositor defined):AID1300, AID1808, AID504735, AID631]”; assay type: functional
[9] = C. albicans growth with fluconazole, confirmation, fluorescence, retest (AID 2467); assay type: functional, cell-based
[10] = molecular target: Serine/threonine-protein phosphatase (Candida dubliniensis (strain CD36 / CBS 7987 / NCPF 3949 / NRRLY-17841) (Yeast), UniProt B9W6M3); assay: calcineurin pathway inhibitors in yeast reporter, dose response, S. cerevisiae, CDRE-lacZ, luminescence, secondary (AID 2388); assay type: functional, cell-based;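 further: yeast reporter cells carrying a calcineurin-responsive lacZ construct stimulated with calcium chloride; luminescent beta-galactosidase reporter signal in whole cells rather than isolated phosphatase activity; potency for inhibition where a drop in reporter signal means calcineurin blockade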
[11] = molecular target: Peroxisome proliferator-activated receptor gamma/Nuclear receptor coactivator 2 (Homo sapiens, UniProt P37231); assay: TR-FRET dose response biochemical High Throughput Screening assay for agonists of the steroid receptor coactivator 2 (SRC-2) recruitment by the peroxisome proliferator-activated receptor gamma (PPAR gamma): non-selective agonists. [Related pubchem assays: 1297, 1032 ]; assay type: functional
[12] = molecular target: Peroxisome proliferator-activated receptor gamma/Nuclear receptor corepressor 2 (Homo sapiens, UniProt P37231+Q9Y618); assay type: functional
Cytochrome P450 2C19 = Cytochrome P450 2C19 (Homo sapiens, UniProt P33261); assay: Cytochrome panel assay with activity outcomes. Panel member name: p450-cyp2c19 Compounds with AC50 equal or less than 10 uM are considered active; assay type: functional; conditions: read-out: AC50
[13] = molecular target: ATP-dependent molecular chaperone HSP82 (Candida albicans (strain WO-1) (Yeast), UniProt C4YTQ8); assay: loss of DOC-induced GRE-beta-galactosidase reporter signal, dose response, Hsp90 inhibitor project, S. cerevisiae, luminescence (AID 2400); assay type: functional, cell-based;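 further: beta-galactosidase luminescence from glucocorticoid response element reporter as proxy for Hsp90 function; inhibitor potency where signal loss means Hsp90 inhibition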
fMet-Leu-Phe receptor = fMet-Leu-Phe receptor (Homo sapiens, UniProt P21462); assay: FPR ligands, dose response (AID 519); assay type: functional
Cytochrome P450 3A4 = Cytochrome P450 3A4 (Homo sapiens, UniProt P08684);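 further: CYP3A4 tested as one member of a cytochrome P450 panel screen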
Protein Rev = Protein Rev (Human immunodeficiency virus type 1 group M subtype B (isolate HXB2)(HIV-1), UniProt P04618); assay: inhibitors of Rev binding to RRE RNA, dose response, biochemical, fluorescence polarization, HIV-1 (AID 434976); design: species or system Human immunodeficiency virus 1
[14] = molecular target: Female germline-specific tumor suppressor gld-1 (Caenorhabditis elegans, UniProt Q17339); assay: inhibitors of GLD-1 binding to TGE RNA, dose response, biochemical, fluorescence polarization, C. elegans (AID 2802);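 further: fluorescence polarization of labeled TGE RNA bound by purified gld-1 protein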
Vero = Vero cell cytotoxicity, cytotoxicity control for flavivirus capping enzyme inhibitors (AID 588742); assay type: functional; conditions: Chlorocebus sabaeus
Genome polyprotein = Genome polyprotein (dengue virus type 2, UniProt P29990); assay: Dengue-2 NS5 methyltransferase inhibitors, primary screen, biochemical, confirmation dose response (AID 588689); assay type: functional
[15] = molecular target: Dual specificity tyrosine-phosphorylation-regulated kinase 1A (Rattus norvegicus, UniProt Q63470); assay type: biochemical, Homo sapiens
Keap1/Nrf2 = Keap1/Nrf2 (Homo sapiens, UniProt Q14145); assay: Keap1-Nrf2 protein-protein interaction inhibitors, dose response, biochemical, fluorescence polarization, cherry-picked samples (AID 588683)
Caspase-6 = molecular target: T1, Caspase-6 (Homo sapiens, UniProt P55212); assay: human caspase-6 inhibitors, dose response, biochemical, VEID-R110 fluorescence, cherry-pick (AID 720632)
T1 sequence (P55212 whole entry): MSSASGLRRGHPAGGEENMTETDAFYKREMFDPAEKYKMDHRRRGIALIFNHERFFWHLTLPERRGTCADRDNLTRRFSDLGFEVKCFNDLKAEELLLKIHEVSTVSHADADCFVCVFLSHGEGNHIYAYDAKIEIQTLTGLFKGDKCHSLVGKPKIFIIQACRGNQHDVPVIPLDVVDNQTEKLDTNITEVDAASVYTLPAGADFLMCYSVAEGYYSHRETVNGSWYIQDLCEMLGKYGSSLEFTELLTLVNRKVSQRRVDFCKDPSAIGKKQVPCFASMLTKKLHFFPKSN

Caspase-7 = Caspase-7 (Homo sapiens, UniProt P55210); assay: human caspase-7 inhibitors, dose response, selectivity assay for caspase-6 inhibitor project, biochemical, DEVD-R110 fluorescence, cherry-pick (AID 743295)
[16] = microbe, parasite or virus in culture; assay type: functional; conditions: Mycobacterium tuberculosis
[17] = molecular target: Voltage-gated inwardly rectifying potassium channel KCNH2 (Homo sapiens, UniProt Q12809); conditions: Potency;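 further: confirmatory quantitative high-throughput screen measuring inhibition of hERG channel activity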
HeLa = assay: HeLa cell cytotoxicity, dose response, cytotoxicity control for MITF activator project, CellTiter-Glo luminescence, cherry-pick samples (AID 540259); assay type: functional, cell-based; conditions: Homo sapiens

Sequence of fMet-Leu-Phe receptor (P21462 whole entry): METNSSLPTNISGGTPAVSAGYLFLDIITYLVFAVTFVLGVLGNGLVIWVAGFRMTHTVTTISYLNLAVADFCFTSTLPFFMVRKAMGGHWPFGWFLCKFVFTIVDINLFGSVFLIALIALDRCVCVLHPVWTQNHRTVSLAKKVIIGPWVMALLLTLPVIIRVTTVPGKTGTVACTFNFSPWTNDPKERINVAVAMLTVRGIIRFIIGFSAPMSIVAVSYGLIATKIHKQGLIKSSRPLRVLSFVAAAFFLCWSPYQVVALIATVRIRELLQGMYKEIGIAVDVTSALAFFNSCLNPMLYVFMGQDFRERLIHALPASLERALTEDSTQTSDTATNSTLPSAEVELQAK
Sequence of Caspase-7 (P55210 24-198 limits assumed): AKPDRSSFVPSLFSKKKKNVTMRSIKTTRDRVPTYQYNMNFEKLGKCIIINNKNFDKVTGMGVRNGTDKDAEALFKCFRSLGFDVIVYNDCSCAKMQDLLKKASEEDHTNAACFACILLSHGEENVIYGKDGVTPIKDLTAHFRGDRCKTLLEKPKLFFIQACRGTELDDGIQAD
Sequence of Caspase-7 (P55210 207-303 limits assumed): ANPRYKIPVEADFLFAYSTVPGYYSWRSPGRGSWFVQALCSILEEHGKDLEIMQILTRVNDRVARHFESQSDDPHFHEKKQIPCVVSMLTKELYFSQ
Sequence of Keap1/Nrf2 (Q16236 whole entry): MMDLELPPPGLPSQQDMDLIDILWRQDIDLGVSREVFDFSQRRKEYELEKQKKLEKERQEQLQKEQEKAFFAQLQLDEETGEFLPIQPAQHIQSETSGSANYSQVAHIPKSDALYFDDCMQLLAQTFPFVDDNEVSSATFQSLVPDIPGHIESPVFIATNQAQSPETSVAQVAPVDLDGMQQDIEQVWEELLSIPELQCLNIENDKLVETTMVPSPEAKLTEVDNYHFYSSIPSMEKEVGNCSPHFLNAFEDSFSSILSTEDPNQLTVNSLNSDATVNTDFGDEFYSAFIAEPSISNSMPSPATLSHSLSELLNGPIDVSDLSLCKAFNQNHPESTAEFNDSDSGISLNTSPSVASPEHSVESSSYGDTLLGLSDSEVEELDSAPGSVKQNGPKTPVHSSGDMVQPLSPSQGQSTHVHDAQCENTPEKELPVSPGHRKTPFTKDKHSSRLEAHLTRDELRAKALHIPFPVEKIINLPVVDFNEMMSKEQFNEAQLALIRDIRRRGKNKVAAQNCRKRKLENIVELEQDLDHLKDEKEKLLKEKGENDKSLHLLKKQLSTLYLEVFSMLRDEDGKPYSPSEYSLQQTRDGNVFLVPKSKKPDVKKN
Sequence of Keap1/Nrf2 (Q14145 whole entry): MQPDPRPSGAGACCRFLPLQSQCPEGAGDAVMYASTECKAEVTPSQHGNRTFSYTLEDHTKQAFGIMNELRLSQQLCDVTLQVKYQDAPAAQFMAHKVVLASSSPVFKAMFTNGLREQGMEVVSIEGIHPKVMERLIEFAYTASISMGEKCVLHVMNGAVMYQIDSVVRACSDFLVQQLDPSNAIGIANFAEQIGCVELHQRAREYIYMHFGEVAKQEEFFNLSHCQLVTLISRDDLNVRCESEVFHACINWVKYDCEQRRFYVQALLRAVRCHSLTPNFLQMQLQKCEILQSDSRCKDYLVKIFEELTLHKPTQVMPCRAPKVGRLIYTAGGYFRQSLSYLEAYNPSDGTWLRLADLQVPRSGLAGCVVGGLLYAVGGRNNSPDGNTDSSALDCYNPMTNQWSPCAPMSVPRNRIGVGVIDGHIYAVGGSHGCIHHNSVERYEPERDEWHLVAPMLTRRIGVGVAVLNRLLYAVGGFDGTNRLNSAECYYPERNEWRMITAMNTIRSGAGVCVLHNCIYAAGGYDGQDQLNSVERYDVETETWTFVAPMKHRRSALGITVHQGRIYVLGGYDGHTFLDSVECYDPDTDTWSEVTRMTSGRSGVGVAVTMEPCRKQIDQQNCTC
Sequence of Serine/threonine-protein phosphatase (B9W6M3 whole entry): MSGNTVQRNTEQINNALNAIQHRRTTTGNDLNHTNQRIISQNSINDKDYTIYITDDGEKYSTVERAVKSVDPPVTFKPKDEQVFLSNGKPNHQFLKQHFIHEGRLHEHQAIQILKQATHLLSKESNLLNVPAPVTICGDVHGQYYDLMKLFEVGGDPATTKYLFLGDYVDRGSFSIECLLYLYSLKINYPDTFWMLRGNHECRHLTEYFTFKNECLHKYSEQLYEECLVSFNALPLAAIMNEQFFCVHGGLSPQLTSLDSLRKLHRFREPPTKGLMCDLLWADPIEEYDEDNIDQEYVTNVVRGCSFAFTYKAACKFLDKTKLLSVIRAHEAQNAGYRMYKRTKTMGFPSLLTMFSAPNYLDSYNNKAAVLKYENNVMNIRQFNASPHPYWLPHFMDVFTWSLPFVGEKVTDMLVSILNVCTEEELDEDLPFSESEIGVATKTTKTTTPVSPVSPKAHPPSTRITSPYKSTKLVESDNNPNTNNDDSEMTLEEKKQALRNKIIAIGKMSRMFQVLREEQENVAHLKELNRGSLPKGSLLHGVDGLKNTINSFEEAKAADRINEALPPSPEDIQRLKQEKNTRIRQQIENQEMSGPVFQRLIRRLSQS
Sequence of Photoreceptor-specific nuclear receptor (Q9Y5X4 whole entry): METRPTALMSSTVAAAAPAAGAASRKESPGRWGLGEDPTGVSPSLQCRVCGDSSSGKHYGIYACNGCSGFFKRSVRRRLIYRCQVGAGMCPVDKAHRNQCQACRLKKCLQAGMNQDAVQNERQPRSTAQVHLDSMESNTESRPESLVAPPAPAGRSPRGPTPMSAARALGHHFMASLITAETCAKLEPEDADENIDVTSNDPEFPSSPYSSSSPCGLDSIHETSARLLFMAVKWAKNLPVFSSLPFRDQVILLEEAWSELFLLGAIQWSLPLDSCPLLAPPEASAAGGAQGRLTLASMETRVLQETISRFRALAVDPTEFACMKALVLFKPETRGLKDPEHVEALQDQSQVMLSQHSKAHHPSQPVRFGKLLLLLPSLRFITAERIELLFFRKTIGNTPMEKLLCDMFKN
Sequence of Cytochrome P450 3A4 (P08684 whole entry): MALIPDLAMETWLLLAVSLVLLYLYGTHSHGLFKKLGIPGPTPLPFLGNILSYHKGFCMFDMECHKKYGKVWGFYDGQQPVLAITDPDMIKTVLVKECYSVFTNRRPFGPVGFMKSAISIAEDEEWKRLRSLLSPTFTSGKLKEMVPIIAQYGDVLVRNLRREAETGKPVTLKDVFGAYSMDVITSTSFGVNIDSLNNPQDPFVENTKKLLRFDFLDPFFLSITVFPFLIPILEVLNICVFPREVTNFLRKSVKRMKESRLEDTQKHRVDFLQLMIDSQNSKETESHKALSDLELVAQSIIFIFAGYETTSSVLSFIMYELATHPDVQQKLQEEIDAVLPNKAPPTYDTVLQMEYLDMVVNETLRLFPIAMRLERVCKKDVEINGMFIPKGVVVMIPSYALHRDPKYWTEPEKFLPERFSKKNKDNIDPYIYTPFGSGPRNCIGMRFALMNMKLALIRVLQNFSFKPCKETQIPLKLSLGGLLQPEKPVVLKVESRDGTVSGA
Sequence of ATP-dependent molecular chaperone HSP82 (C4YTQ8 whole entry): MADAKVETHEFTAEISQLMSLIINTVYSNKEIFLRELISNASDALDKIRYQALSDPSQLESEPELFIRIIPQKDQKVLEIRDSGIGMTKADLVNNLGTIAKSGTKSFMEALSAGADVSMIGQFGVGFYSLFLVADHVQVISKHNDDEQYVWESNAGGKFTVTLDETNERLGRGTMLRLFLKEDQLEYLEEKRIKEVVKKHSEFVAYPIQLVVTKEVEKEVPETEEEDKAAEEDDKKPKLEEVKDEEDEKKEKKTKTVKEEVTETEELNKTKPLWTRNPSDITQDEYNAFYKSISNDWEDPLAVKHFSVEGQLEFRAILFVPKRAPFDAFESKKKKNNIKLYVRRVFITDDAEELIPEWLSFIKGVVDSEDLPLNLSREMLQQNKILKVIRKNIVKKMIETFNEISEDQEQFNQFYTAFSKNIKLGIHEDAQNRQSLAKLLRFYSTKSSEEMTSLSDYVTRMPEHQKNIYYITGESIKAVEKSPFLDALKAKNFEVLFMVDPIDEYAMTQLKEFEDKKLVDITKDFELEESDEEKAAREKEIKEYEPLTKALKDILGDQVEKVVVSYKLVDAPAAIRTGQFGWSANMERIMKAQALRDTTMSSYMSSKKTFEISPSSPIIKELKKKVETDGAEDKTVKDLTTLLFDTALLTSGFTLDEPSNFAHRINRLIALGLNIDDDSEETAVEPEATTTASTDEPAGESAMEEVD
Sequence of Protein Rev (P04618 whole entry): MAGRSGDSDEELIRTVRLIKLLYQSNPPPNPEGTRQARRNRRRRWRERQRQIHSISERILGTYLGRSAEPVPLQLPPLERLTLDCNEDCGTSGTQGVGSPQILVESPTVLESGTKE
Sequence of Cytochrome P450 2C19 (P33261 whole entry): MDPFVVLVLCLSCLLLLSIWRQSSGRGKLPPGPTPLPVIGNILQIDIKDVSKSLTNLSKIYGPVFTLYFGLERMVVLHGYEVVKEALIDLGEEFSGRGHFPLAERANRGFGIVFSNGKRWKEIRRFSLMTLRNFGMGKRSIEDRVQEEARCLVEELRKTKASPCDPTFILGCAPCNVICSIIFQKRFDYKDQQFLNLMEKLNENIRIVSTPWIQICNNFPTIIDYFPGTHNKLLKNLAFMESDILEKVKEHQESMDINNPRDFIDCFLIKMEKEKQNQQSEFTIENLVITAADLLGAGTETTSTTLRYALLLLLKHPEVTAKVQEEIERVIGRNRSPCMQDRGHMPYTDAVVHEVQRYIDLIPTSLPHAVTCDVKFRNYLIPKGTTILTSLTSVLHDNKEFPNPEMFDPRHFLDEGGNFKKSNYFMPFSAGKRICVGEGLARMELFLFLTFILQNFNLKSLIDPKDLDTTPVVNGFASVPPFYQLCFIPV

O=C(c1ccc(Cl)cn1)N1CCN(c2ccnc3cc(Cl)ccc23)CC1
AC50 (Candida albicans [1]): 3.17 µM (active) | AC50 (Candida albicans [2]): 0.316 µM (active) | AC50 (Candida albicans [3]): 2.47 µM (active) | AC50 (Candida albicans [4]): < 0.195 µM (active)

COc1cccc(C2C(C(=O)c3cc4ccccc4o3)=C(O)C(=O)N2c2cc(C)on2)c1OC (configuration not stated)
EC50 [5]: > 150 µM (inactive) | IC50 [6]: > 39.8 µM (not active) | EC50 [7]: 35.9 µM (inactive) | EC50 [8]: > 79.4 µM (not active) | EC50 [9]: 0.61 µM (active) | EC50 [10]: > 180 µM (inactive) | EC50 [11]: 9.84 µM (active) | IC50 [12]: 4.97 µM (active) | AC50 (Cytochrome P450 2C19): 15.8 µM (inconclusive) | EC50 [13]: 17.2 µM (active) | Ki (fMet-Leu-Phe receptor): > 66.7 µM (inactive) | AC50 (Cytochrome P450 3A4): 28.2 µM (inconclusive)

COc1cc(O)cc2cc3c(c(O)c12)C(=O)CC(C)(O)O3 (configuration not stated)
IC50 (Protein Rev): 16.2 µM (not active) | IC50 [14]: 2.96 µM (active) | CC50 (Vero): > 40 µM (active) | IC50 (Genome polyprotein): 38.1 µM (active) | AC50 [15]: 2.92 µM (active)

Cc1oc2c(cc(NS(=O)(=O)c3ccc(C(C)C)cc3)c3ccccc32)c1C(=O)O
AC50 (Keap1/Nrf2): 21.7 µM (active) | AC50 (Caspase-6): 4 µM (active) | AC50 (Caspase-7): > 70 µM (inactive)

CN1CCN2c3ccccc3Cc3ccccc3C2C1 (configuration not stated) [MIANSERIN HYDROCHLORIDE]
CC50 [16]: > 40 µM (active) | AC50 [17]: 35.5 µM (inconclusive)

c1ccc(Cc2cc(-c3ccccc3)on2)cc1
AC50 (HeLa): 253 µM (active)
